Measurements reported in US7705038B2, “Control of parasites in animals by the use of parasiticidal 2-phenyl-3-(1H-pyrrol-2-yl)acrylonitrile derivatives” (Intervet, Inc., priority 2004, dated 2010).

What was measured:
[1] = tested on: cat fleas (Ctenocephalides felis); test: Contact activity against cat fleas (LC50, % kill); conditions: for % Kill: percent of a sample of cat fleas killed at a concentration of 1.26 μg/cm^2; for pest or weed control at 1.26 µg/cm2, 1.26 µg/cm2: Ctenocephalides felis, read-out: % Kill
Source text: (§1) Exemplified compounds of Formula 1 are listed by Tables 1a and 1b, above. The activity of these compounds against Haemonchus contortus and cat fleas (Ctenocephalides felis) is summarized by Table 7, below.

Haemonchus contortus = test: Activity against Haemonchus contortus (LD99); conditions: dose required to kill 99% of the sample of Haemonchus contortus
Source text: as §1
The LD99 value is the dose, expressed as μg/ml, that was required to kill 99% of the sample of Haemonchus contortus.

SMILES | % Kill [1] | LD99 (Haemonchus contortus) | pest or weed control at 1.26 µg/cm2, 1.26 µg/cm2 [1] | LC50 ([1]; concentration required to kill 50% of the sample of cat fleas on contact) | EC99 (Haemonchus contortus)
CN(C)C(=S)n1cccc1/C=C(\C#N)c1ccc(Cl)cc1 [Compound 84] | 19% | 10 µg/mL |  |  | 
Cn1cccc1/C=C(\C#N)c1cccc(Cl)c1 [Compound 5] | 6% | 3 µg/mL |  |  | 
N#C/C(=C\c1ccc[nH]1)c1ccc([N+](=O)[O-])cc1 [Compound 40] | 6% | — (the symbol ‘—’ indicates tested but inactive up to 15 μg/ml) |  |  | 
N#C/C(=C\c1ccc[nH]1)c1ccc(F)cc1Cl [Compound 74] | 30% | 3 µg/mL |  |  | 
N#C/C(=C\c1ccc[nH]1)c1ccc(Cl)cc1 [Compound 2, (Z)-2-(4-Chloro-phenyl)-3-(1H-pyrrol-2-yl)acrylonitrile] |  |  | 95% | 0.17 μg/cm^2 | 0.406 µg/mL
N#C/C(=C\c1cccn1C(=O)OCc1ccccc1)c1ccc(Cl)cc1 [Compound 86] | 20% | 5.5 µg/mL |  |  | 
N#C/C(=C\c1ccc[nH]1)c1ccccc1C#N [Compound 37] | 11% | — (the symbol ‘—’ indicates tested but inactive up to 15 μg/ml) |  |  | 
Cc1ccc(/C(C#N)=C/c2ccc[nH]2)c(C)c1 [Compound 88] | 44% | — (the symbol ‘—’ indicates tested but inactive up to 15 μg/ml) |  |  | 
N#C/C(=C\c1cc(Br)c[nH]1)c1ccc(C(F)(F)F)cc1 [Compound 11] | 18% | — (the symbol ‘—’ indicates tested but inactive up to 15 μg/ml) |  |  | 
Cn1cccc1/C=C(\C#N)c1ccc(Cl)cc1 [Compound 6, (Z)-2-(4-Chloro-phenyl)-3-(1-methyl-1H-pyrrol-2-yl)acrylonitrile] |  |  | 13% |  | 1.88 µg/mL
N#C/C(=C\c1ccc[nH]1)c1ccc2ccccc2c1 [Compound 66, 2-(2-naphthyl)-3-(1H-pyrrol-2-yl)acrylonitrile] |  |  | 28% |  | 2.5 µg/mL
N#C/C(=C\c1cc(Br)c[nH]1)c1ccc(F)cc1 [Compound 30] | 18% | 11 µg/mL |  |  | 
N#CC(=Cc1cc(Br)c[nH]1)c1cccc2ccccc12 [Compound 34, 2-(1-naphthyl)-3-(4-bromo-1H-pyrrol-2-yl)acrylonitrile] |  |  | 21% |  | 0.813 µg/mL
N#C/C(=C\c1ccc[nH]1)c1ccc(Cl)cc1Cl [Compound 13] | 8% | 3 µg/mL |  |  | 
N#C/C(=C\c1ccc[nH]1)c1ccc(C(F)(F)F)cc1 [Compound 4] | 20% | 0.625 µg/mL |  |  | 
N#C/C(=C\c1ccc[nH]1)c1cccc(Cl)c1 [Compound 1] | 28% | 0.75 µg/mL |  |  | 
N#C/C(=C\c1ccc[nH]1)c1ccc(F)c(Cl)c1 [Compound 81] | 5% | 1.25 µg/mL |  |  | 
N#C/C(=C\c1cc(Br)c[nH]1)c1cccc(F)c1 [Compound 31] | 27% | 1.75 µg/mL |  |  | 
N#C/C(=C\c1ccc[nH]1)c1ccc(Br)cc1 [Compound 33] | 15% | 3 µg/mL |  |  | 
Cn1cccc1/C=C(\C#N)c1cccc(C(F)(F)F)c1 [Compound 22] | 19% | 5.5 µg/mL |  |  | 
